This is an account of results in US6479531B1, “Gastrin and cholecystokinin receptor ligands” (James Black Foundation Limited, priority 1998, dated 2002).

One test concerns the target T1, CCKB receptor (Mus musculus, UniProt P56481).
T1 construct: The whole brains from male mice (CD1 22-25 g; Charles River) were removed; from tissue; host or cells: cerebral cortex membranes of male CD1 mice
T1 sequence (P56481 1-453): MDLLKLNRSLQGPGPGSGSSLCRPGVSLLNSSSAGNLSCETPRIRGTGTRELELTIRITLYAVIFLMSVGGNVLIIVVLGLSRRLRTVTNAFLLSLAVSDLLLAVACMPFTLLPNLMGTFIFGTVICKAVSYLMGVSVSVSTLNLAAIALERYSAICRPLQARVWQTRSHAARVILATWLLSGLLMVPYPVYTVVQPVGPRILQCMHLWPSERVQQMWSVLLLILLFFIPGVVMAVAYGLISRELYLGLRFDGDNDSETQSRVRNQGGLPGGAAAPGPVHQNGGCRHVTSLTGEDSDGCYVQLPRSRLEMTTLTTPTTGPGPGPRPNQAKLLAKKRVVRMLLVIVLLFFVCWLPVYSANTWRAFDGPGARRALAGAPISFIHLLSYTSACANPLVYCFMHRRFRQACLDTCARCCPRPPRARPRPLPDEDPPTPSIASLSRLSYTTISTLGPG
Nature of the test: CCKB receptor radioligand binding assay in mouse cortical membranes. Conditions: [125I]-CCK8(S) 200 pM, 150 min at 21±3°, read-out: CCKB pKi (converted). In short, it runs like this:
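Bound radioactivity was gamma-counted after rapid GF/B filtration and cold 50 mM Tris-HCl (pH 7.4) washes. The tissue was cerebral cortex from male CD1 mice, prepared as twice-centrifuged membranes in pH 7.2 HEPES/NaCl/KCl/MgCl2/EDTA buffer with bacitracin at 20 mg/ml original wet weight.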

The next test concerns the target T2, gastrin receptor (Rattus norvegicus, UniProt P30553).
T2 construct: The stomach was excised and flushed with ca. 1 ml of unbuffered physiological saline solution; from tissue; host or cells: isolated whole stomach of immature rats (ca. 21 days old)
T2 sequence (P30553 1-452): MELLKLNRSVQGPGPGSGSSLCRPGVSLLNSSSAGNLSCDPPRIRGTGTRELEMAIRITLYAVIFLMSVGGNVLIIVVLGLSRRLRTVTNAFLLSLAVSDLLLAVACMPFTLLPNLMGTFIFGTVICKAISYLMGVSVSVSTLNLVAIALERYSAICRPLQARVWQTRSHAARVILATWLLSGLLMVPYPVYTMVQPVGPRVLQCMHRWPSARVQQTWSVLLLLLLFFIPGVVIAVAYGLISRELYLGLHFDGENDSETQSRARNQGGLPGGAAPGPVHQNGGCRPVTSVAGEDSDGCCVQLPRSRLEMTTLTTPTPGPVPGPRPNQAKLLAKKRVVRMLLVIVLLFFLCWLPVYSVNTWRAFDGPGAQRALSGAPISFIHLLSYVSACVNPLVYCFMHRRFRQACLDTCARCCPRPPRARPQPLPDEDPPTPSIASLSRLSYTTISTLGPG
The experiment in a line: gastrin antagonist activity in immature rat stomach assay (pentagastrin dose-response, acid secretion). As to conditions: isolated immature rat stomach, cumulative pentagastrin dose-response curves, read-out: Gastrin pKb (converted). Summed up:
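Isolated, lumen-perfused stomach from immature rats (33-50 g, ca. 21 days) in a 37° organ bath with 3×10^−8 M 5-methylfurmethide, gassed 95% O2/5% CO2. Compound added serosally after 120 min stabilisation; cumulative pentagastrin dose-response curves begun 60 min later, acid secretion followed by perfusate pH.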

As for `O=C(O)Cc1cccc(NC(=O)c2nc(C3CCCCC3)[nH]c2CCC23CC4CC(CC(C4)C2)C3)c1` [Example 84, (3-{[5-(2-Adamantan-1-yl-ethyl)-2-cyclohexyl-1H-imidazole-4-carbonyl]-amino}-phenyl)-acetic Acid], the Ki on CCKB receptor is 1.02 nM. In addition, the Kb on gastrin receptor is 162 nM.
Regarding `Cc1ccc(NC(=O)c2nc(C3(C)CCCCC3)[nH]c2COC23CC4CC(CC(C4)C2)C3)cc1C(=O)O` [Example 220, 5-([5-(Adamantan-1-yloxymethyl)-2-(1-methyl-cyclohexyl)-1H-imidazole-4-carbonyl]-amino}-2-methyl-benzoic Acid], the Ki at CCKB receptor is 2.95 nM. Besides, the Kb at gastrin receptor is 0.468 nM.
Regarding `CC1(CCc2[nH]c(C3CCCCC3)nc2C(=O)Nc2cccc(C(=O)O)c2)CCCCC1` [Example 133, 3-({2-Cyclohexyl-5-[2-(1-methyl-cyclohexyl)-ethyl]-1H-imidazole-4-carbonyl}-amino)-benzoic Acid], on CCKB receptor, the Ki is 141 nM. In addition, the Kb at gastrin receptor was 12 nM.
In the case of `O=C(O)c1cccc(NC(=O)c2nc([C@@H]3CCCN3)[nH]c2CCC23CC4CC(CC(C4)C2)C3)c1` [Example 136, (S)-3-{[5-(2-Adamantan-1-yl-ethyl)-2-pyrrolidin-2-yl-1H-imidazole-4-carbonyl]-amino}-benzoic Acid], the Ki on CCKB receptor is 4170 nM. The Kb on gastrin receptor is 148 nM.
On to `COc1ccccc1-c1nc(C(=O)Nc2cccc(C(=O)O)c2)c(CCC23CC4CC(CC(C4)C2)C3)[nH]1` [Example 58, 3-{[5-(2-Adamantan-1-yl-ethyl)-2-(2-methoxy-phenyl)-1H-imidazole-4-carbonyl]-amino}-benzoic Acid], for which the Ki on CCKB receptor was 794 nM. The Kb on gastrin receptor is 22.9 nM.
For `O=C(O)c1cccc(NC(=O)c2nc(-c3ccccc3C(F)(F)F)[nH]c2CCC2CCCCCC2)c1` [Example 40, 3-{[5-(2-Cycloheptyl-ethyl)-2-(2-trifluoromethyl-phenyl)-1H-imidazole-4-carbonyl]-amino}-benzoic Acid], the Ki on CCKB receptor is 933 nM. Further, at gastrin receptor, the Kb is 204 nM.
Consider `O=C(O)c1cccc(NC(=O)c2nc(-c3ccccc3Br)[nH]c2CCC23CC4CC(CC(C4)C2)C3)c1` [Example 59, 3-{[5-(2-Adamantan-1-yl-ethyl)-2-(2-bromo-phenyl)-1H-imidazole-4-carbonyl]-amino}-benzoic Acid], for which, on CCKB receptor, the Ki is 251 nM. In addition, on gastrin receptor, the Kb was 57.5 nM.
With `Cc1ccc(NC(=O)c2nc(C3CCCCC3)[nH]c2COC23CC4CC(CC(C4)C2)C3)cc1C(=O)O` [Example 217, 5-{[5-(Adamantan-1-yloxymethyl)-2-cyclohexyl-1H-imidazole-4-carbonyl]-amino}-2-methyl-benzoic Acid], on CCKB receptor, the Ki is 3.98 nM. Moreover, the Kb on gastrin receptor was 3.98 nM.
For the compound `O=C(O)c1cccc(NC(=O)c2[nH]c(C3CCCCCC3)nc2CCC23CC4CC(CC(C4)C2)C3)c1` [Example 79, 3-{[5-(2-Adamantan-1-yl-ethyl)-2-cycloheptyl-1H-imidazole-4-carbonyl]-amino}-benzoic Acid], the Ki on CCKB receptor is 11.7 nM. The Kb on gastrin receptor is 5.37 nM.
As to `Cc1ccc(NC(=O)c2nc([C@@H]3CCCN3C)[nH]c2CCC23CC4CC(CC(C4)C2)C3)cc1C(=O)O` [Example 138, (S)-5-{[5-(2-Adamantan-1-yl-ethyl)-2-(1-methyl-pyrrolidin-2-yl)-1H-imidazole-4-carbonyl]-amino}-2-methyl-benzoic Acid], the Ki at CCKB receptor is 50.1 nM. Moreover, at gastrin receptor, the Kb was 25.7 nM.
Take `O=C(O)c1cccc(NC(=O)c2nc(-c3cnc[nH]3)[nH]c2CCC23CC4CC(CC(C4)C2)C3)c1` [Example 110, 3-{[5-(2-Adamantan-1-yl-ethyl)-1H-3′H-[2,4′]biimidazolyl-4-carbonyl]-amino}-benzoic Acid]: at CCKB receptor, the Ki was 339 nM. For the same compound, on gastrin receptor, the Kb is 1050 nM.
